In patent publication US9573938B2 (priority 2012, dated 2017):
Several values for one entry are separate records, joined by “and”; a condition that tells them apart may be missing. Equal values may be shown once. Read-outs that look alike come from different tables or passages of the source.

How the values were obtained:
[1] = biological target: 2009 H1N1 influenza A endonuclease (PAN domain) (Influenza A virus, UniProt C3W5S0); assay: biochemical; design: species or system Influenza A (pandemic 2009 H1N1); details: fluorescence change over time at 37 degrees Celsius
HIV-1 integrase [2] = biological target: T1, HIV-1 integrase (Human immunodeficiency virus type 1 group M subtype B, UniProt P12497); assay: 3′-processing assay; assay type: biochemical; details: 500 nM integrase, blunt ended 32P-labled 21-mer U5 DNA, 37° C. 1 hour; read-out: IC50 (μM) 3′-Process
Experimental: (§1) The two metal binding motif of these compounds allows for potential cross reactivity with other drug targets with two metal containing active sites. Compounds were tested for LEDGF independent integration (strand transfer) and 3′ processing based on established protocols (Kessl et al.; J Biol Chem, 2012; 287:16801-16811).
(§2) The 3′-processing was assayed using blunt ended ^32P-labled 21-mer synthetic double stranded U5 DNA. The strand transfer assay used ^32P-labled recessed end 19-mer synthetic double stranded U5 DNA. 500 nM integrase was pre-incubated with compound for 30 minutes on ice in 50 mM MOPS (pH 7.2) buffer containing 2 mM β-mercaptoethanol, 50 mM NaCl and 10 mM MgCl2. 50 nM DNA substrate was added to the reaction and incubated at 37° C. for 1 hour when the reactions were stopped with 50 mM EDTA. The reaction products are subjected to denaturing polyacrylamide gel electrophoresis and visualized using a Storm 860 Phosphorimager (Amersham Biosciencs). The ICs50s of representative compounds of formula (I) as detected with a LEDGF independent integration assay or a 3′-processing assay are shown in the following table.

HIV-1 integrase [3] = biological target: T1, HIV-1 integrase; assay: LEDGF independent integration (strand transfer) assay; assay type: biochemical; details: 500 nM integrase, 32P-labled recessed end 19-mer U5 DNA, 37° C. 1 hour
Experimental: as §1, §2

[4] = IC50 (uM) using either 500 nM or 50 nM enzyme
[5] = 500 nM or 50 nM enzyme, read-out: IC50 (uM) using either 500 nM or 50 nM enzyme

| Structure (SMILES) | IC50 [1, 4] | melting point | IC50 [1, 5] | IC50 (HIV-1 integrase [2]) | IC50 (HIV-1 integrase [3]) |
| --- | --- | --- | --- | --- | --- |
| O=c1[nH]cc(-c2ccccc2)cc1O [5-Phenyl-3-hydroxypyridin-2(1H)-one] | > 10 µM | 175 to 177 °C | – | – | – |
| O=c1[nH]c(-c2ccc(F)cc2)ncc1O [2-(4-Fluorophenyl)-5-hydroxypyrimidin-4(3H)-one] | – | 252 to 254 °C | 0.58 µM | – | – |
| O=c1[nH]c(-c2ccc(-c3nnn[nH]3)cc2)ccc1O [drawing 241] | – | – | – | 12.6 ± 3.2 µM | 23.7 ± 2.7 µM |
| O=c1[nH]cnc(-c2ccc(F)cc2)c1O [6-(4-Fluorophenyl)-5-hydroxypyrimidin-4(3H)-one] | 193 µM | 285 to 287 °C | – | – | – |
| O=C(O)c1ccc(-c2c[nH]c(=O)c(O)c2)cc1 [drawing 242] | – | – | – | 7.4 ± 1.6 µM | 50.7 ± 2.9 µM |
| O=C(O)c1cccc(-c2c[nH]c(=O)c(O)c2)c1 [drawing 240] | – | – | – | 22.2 ± 2.5 µM | 20.5 ± 1.3 µM |
| O=c1[nH]c(-c2ccc(O)c(O)c2)ccc1O [drawing 237] | – | – | – | 8.2 ± 2.5 µM | 6 ± 0.8 µM |
| N#Cc1ccc(-c2cc(O)c(=O)[nH]n2)cc1 [4-(5-Hydroxy-6-oxo-1,6-dihydropyridazin-3-yl)benzonitrile] | – | 305 to 307 °C | 9.3 µM | – | – |
| O=c1[nH]cc(-c2ccc(F)cc2)cc1O [drawing 239] | – | – | – | 11.6 ± 1.6 µM | 15.7 ± 0.9 µM |
| O=c1[nH]c(-c2ccccc2)c(-c2ccccc2)cc1O [5,6-bis(phenyl)-3-hydroxypyridin-2(1H)-one] | 0.12 µM and 0.047 µM | 249 to 255 °C | – | – | – |
| O=c1[nH]c(-c2ccc(-c3nnn[nH]3)cc2)c(-c2ccc(F)cc2)cc1O [drawing 238] | – | – | – | 20.8 ± 5.8 µM | 11.7 ± 1.5 µM |
| N#Cc1ccc(-c2cc(O)c(=O)[nH]c2-c2ccc(C#N)cc2)cc1 [5,6-bis(4-Cyanophenyl)-3-hydroxypyridin-2(1H)-one] | 0.1 µM | 159 to 162 °C | – | – | – |
| O=c1[nH]c(-c2ccc(-c3nnn[nH]3)cc2)c(-c2ccc(-c3nnn[nH]3)cc2)cc1O [5,6-bis[4-(1H-Tetrazol-5-yl)phenyl]-3-hydroxypyridin-2(1H)-one] | 0.29 µM | 180 to 182 °C | – | – | – |
| N#Cc1ccc(-c2cc(O)c(=O)[nH]c2-c2ccc(F)cc2)cc1 [5-(4-Cyanophenyl)-6-(4-fluorophenyl)-3-hydroxypyridin-2(1H)-one] | 0.136 µM | 255 to 257 °C | – | – | – |
| N#Cc1ccc(-c2[nH]c(=O)c(O)cc2-c2ccc(F)cc2)cc1 [5-(4-Fluorophenyl)-6-(4-cyanophenyl)-3-hydroxypyridin-2(1H)-one] | 0.054 µM | 255 to 258 °C | – | – | – |
